Patent publication US12448377B2, “Heterocyclic compound” (Takeda Pharmaceutical Company Limited, priority 2019, dated 2025)

Biological target: T1, human orexin type 2 receptor (Homo sapiens, UniProt O43614)
T1 construct: expressed in transfected cells
T1 sequence (O43614 1-444): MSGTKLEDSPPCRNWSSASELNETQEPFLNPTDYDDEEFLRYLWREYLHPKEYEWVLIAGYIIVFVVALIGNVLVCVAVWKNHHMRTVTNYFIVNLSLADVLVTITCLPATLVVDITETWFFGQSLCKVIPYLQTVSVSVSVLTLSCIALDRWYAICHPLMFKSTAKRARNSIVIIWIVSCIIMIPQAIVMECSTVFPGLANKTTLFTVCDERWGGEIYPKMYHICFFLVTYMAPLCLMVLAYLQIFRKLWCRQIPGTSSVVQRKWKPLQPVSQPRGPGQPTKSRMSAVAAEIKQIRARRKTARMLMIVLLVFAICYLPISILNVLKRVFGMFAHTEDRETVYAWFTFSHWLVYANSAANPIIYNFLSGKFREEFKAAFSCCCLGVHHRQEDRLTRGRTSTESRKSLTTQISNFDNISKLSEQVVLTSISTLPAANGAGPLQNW
Experiment: Measurement of orexin type 2 receptor agonist activity (calcium fluorescence, CHO cells forcibly expressing human OX2 receptor)
Assay type: cell-based
Conditions: compound at 3 μM, DMSO = 0%, orexin A (human) 10 nM = 100%
Excerpt: To obtain a cell clone stably expressing human orexin type 2 receptor, human orexin type 2 receptor cDNA was inserted into pcDNA3.1(+) plasmid vector (Invitrogen), and a plasmid DNA for expression of human orexin type 2 receptor (pcDNA3.1(+)/hOX2R) was cloned. The plasmid DNA was introduced into CHO-K1 cell by an electroporation method, and human orexin type 2 receptor-expressing clonal cells were obtained by limiting dilution method using G418 drug resistance as a selection marker.
CHO cells forcibly expressing human OX2 receptor were seeded in each well of 384 well black transparent bottom plate (BD Falcon) at 10,000 cells/well, and cultured for one day in a 5% CO2 incubator at 37° C. After removal of the medium in the cell plate, assay buffer A containing a calcium indicator (HBSS (Thermo Fisher Scientific), 20 mM HEPES (Thermo Fisher Scientific), 0.1% BSA (Sigma-Aldrich), 2.5 μg/mL Fluo-4 AM (DOJINDO Chemical), 0.08% Pluronic F127 (DOJINDO Chemical), 1.25 mM probenecid (DOJINDO Chemical)) was added thereto at 30 μL/well. The plate was stood for 30 min in a 5% CO2 incubator at 37° C., and further stood at room temperature for 30 min. A test compound prepared by diluting with assay buffer B (HBSS, 20 mM HEPES, 0.1% BSA) was added thereto at 10 μL/well, and the fluorescence value was measured by FDSSμCELL (Hamamatsu Photonics K.K.) every one sec for 1 min, and thereafter every two sec for 1 min 40 sec. The activity (%) of the test compound was calculated assuming that variation in the fluorescence value when DMSO was added instead of the test compound was 0%, and variation in the fluorescence value when orexin A (human) (PEPTIDE INSTITUTE, INC.) was added at the final concentration of 10 nM was 100%.

Row | Structure (SMILES) | OX2R agonist activity (3 μM, %)
1 | CCOC(=O)CC1CCC(OCC2C(NS(C)(=O)=O)CCc3ccc(C)c(=O)n32)CC1 (racemic) [Example 84, rac-ethyl [(1S,4s)-4-({(3S,4R)-3-[(methanesulfonyl)amino]-7-methyl-6-oxo-1,3,4,6-tetrahydro-2H-quinolizin-4-yl}methoxy)cyclohexyl]acetate] | 75%
2 | CC1CCC(OCC2C(NS(C)(=O)=O)CCc3cccc(=O)n32)CC1 (racemic) [Example 3, rac-N-[(3S,4R)-4-({[(1s,4S)-4-methylcyclohexyl]oxy}methyl)-6-oxo-1,3,4,6-tetrahydro-2H-quinolizin-3-yl]methanesulfonamide] | 89%
3 | CC#CC1CCC(OCC2C(NS(=O)(=O)NC)CCc3ccc(C)c(=O)n32)CC1 [Example 149, rel-N-methyl-N′-[(3S,4R)-7-methyl-6-oxo-4-({[(1s,4S)-4-(prop-1-yn-1-yl)cyclohexyl]oxy}methyl)-1,3,4,6-tetrahydro-2H-quinolizin-3-yl]sulfuric diamide] | 95%
4 | COC(C)(C)C1CCC(OCC2C(NS(C)(=O)=O)CCc3ccc(C)c(=O)n32)CC1 (racemic) [Example 74, rac-N-[(3S,4R)-4-(([(1s,4S)-4-(2-methoxypropan-2-yl)cyclohexyl]oxy)methyl)-7-methyl-6-oxo-1,3,4,6-tetrahydro-2H-quinolizin-3-yl]methanesulfonamide] | 95%
5 | Cc1ccc(C2CCC(OCC3C(NS(=O)(=O)C4CC4)CCc4ccc(C)c(=O)n43)CC2)cc1 (racemic) [Example 36, rac-N-[(3S,4R)-7-methyl-4-({[(1s,4S)-4-(4-methylphenyl)cyclohexyl]oxy}methyl)-6-oxo-1,3,4,6-tetrahydro-2H-quinolizin-3-yl]cyclopropanesulfonamide] | 84%
6 | CCC1CCC(OCC2C(NS(C)(=O)=O)CCc3c(C)cc(C)c(=O)n32)CC1 (racemic) [Example 48, rac-N-[(3S,4R)-4-({[(1s,4S)-4-ethylcyclohexyl]oxy}methyl)-7,9-dimethyl-6-oxo-1,3,4,6-tetrahydro-2H-quinolizin-3-yl]methanesulfonamide] | 95%
7 | CCC1CCC(OCC2C(NS(C)(=O)=O)CCc3c(Br)cc(C)c(=O)n32)CC1 [Example 106, rel-N-[(3S,4R)-9-bromo-4-({[(1s,4S)-4-ethylcyclohexyl]oxy}methyl)-7-methyl-6-oxo-1,3,4,6-tetrahydro-2H-quinolizin-3-yl]methanesulfonamide] | 91%
8 | CCC1CCC(OCC2C(NS(=O)(=O)CC)CCc3ccc(C)c(=O)n32)CC1 (racemic) [Example 11, rac-N-[(3S,4R)-4-({[(1s,4S)-4-ethylcyclohexyl]oxy}methyl)-7-methyl-6-oxo-1,3,4,6-tetrahydro-2H-quinolizin-3-yl]ethanesulfonamide] | 100%
9 | CCS(=O)(=O)NC1CCc2ccc(C)c(=O)n2C1COC1CCC(C(C)(C)C)CC1 (racemic) [Example 18, rac-N-[(3S,4R)-4-({[(1s,4S)-4-tert-butylcyclohexyl]oxy}methyl)-7-methyl-6-oxo-1,3,4,6-tetrahydro-2H-quinolizin-3-yl]ethanesulfonamide] | 96%
10 | CCS(=O)(=O)NC1CCc2ccc(C)c(=O)n2C1COC1CCC(C(C)C)CC1 (racemic) [Example 13, rac-N-[(3S,4R)-7-methyl-6-oxo-4-({[(1s,4S)-4-(propan-2-yl)cyclohexyl]oxy}methyl)-1,3,4,6-tetrahydro-2H-quinolizin-3-yl]ethanesulfonamide] | 96%
11 | CC#CC1CCC(OCC2C(NS(=O)(=O)N(C)C)CCc3ccc(C)c(=O)n32)CC1 [Example 144, rel-N,N-dimethyl-N′-[(3S,4R)-7-methyl-6-oxo-4-({[(1s,4S)-4-(prop-1-yn-1-yl)cyclohexyl]oxy}methyl)-1,3,4,6-tetrahydro-2H-quinolizin-3-yl]sulfuric diamide] | 99%

Next, values leading:

Row | OX2R agonist activity (3 μM, %) | Structure (SMILES)
12 | 96% | CC#CC1CCC(OCC2C(NS(C)(=O)=O)CCc3ccc(C)c(=O)n32)CC1 (racemic) [Example 109, rac-N-[(3S,4R)-7-methyl-6-oxo-4-({[(1s,4S)-4-(prop-1-yn-1-yl)cyclohexyl]oxy}methyl)-1,3,4,6-tetrahydro-2H-quinolizin-3-yl]methanesulfonamide]
13 | 89% | Cc1ccc2n(c1=O)C(COC1CCC(CC3CC3)CC1)C(NS(C)(=O)=O)CC2 (racemic) [Example 87, rac-N-[(3S,4R)-4-({[(1s,4S)-4-(cyclopropylmethyl)cyclohexyl]oxy}methyl)-7-methyl-6-oxo-1,3,4,6-tetrahydro-2H-quinolizin-3-yl]methanesulfonamide]
14 | 59% | Cc1ccc2n(c1=O)C(COC1CCC(CC(C)(C)O)CC1)C(NS(C)(=O)=O)CC2 (racemic) [Example 85, rac-N-[(3S,4R)-4-({[(1s,4S)-4-(2-hydroxy-2-methylpropyl)cyclohexyl]oxy}methyl)-7-methyl-6-oxo-1,3,4,6-tetrahydro-2H-quinolizin-3-yl]methanesulfonamide]
15 | 108% | Cc1ccc2n(c1=O)C(COC1CCC(c3ccccc3C(F)(F)F)CC1)C(NS(C)(=O)=O)CC2 [Example 72, rel-N-{(3S,4R)-7-methyl-6-oxo-4-[({(1s,4S)-4-[2-(trifluoromethyl)phenyl]cyclohexyl}oxy)methyl]-1,3,4,6-tetrahydro-2H-quinolizin-3-yl]methanesulfonamide]
16 | 103% | Cc1ccc2n(c1=O)C(COC1CCC(OC(C)C)CC1)C(NS(C)(=O)=O)CC2 (racemic) [Example 61, rac-N-{(3S,4R)-7-methyl-6-oxo-4-[({(1s,4S)-4-[(propan-2-yl)oxy]cyclohexyl}oxy)methyl]-1,3,4,6-tetrahydro-2H-quinolizin-3-yl)methanesulfonamide]
17 | 89% | Cc1ccc2n(c1=O)C(COC1CCC(CF)CC1)C(NS(C)(=O)=O)CC2 (racemic) [Example 86, rac-N-[(3S,4R)-4-({[(1s,4S)-4-(fluoromethyl)cyclohexyl]oxy}methyl)-7-methyl-6-oxo-1,3,4,6-tetrahydro-2H-quinolizin-3-yl]methanesulfonamide]
18 | 99% | Cc1ccc2n(c1=O)C(COC1CCC(c3ccccn3)CC1)C(NS(C)(=O)=O)CC2 (racemic) [Example 116, rac-N-[(3S,4R)-7-methyl-6-oxo-4-({[(1s,4S)-4-(pyridin-2-yl)cyclohexyl]oxy)methyl)-1,3,4,6-tetrahydro-2H-quinolizin-3-yl]methanesulfonamide]
19 | 93% | CCOC1CCC(OCC2C(NS(C)(=O)=O)CCc3ccc(C)c(=O)n32)CC1 (racemic) [Example 59, rac-N-[(3S,4R)-4-({[(1s,4S)-4-ethoxycyclohexyl]oxy}methyl)-7-methyl-6-oxo-1,3,4,6-tetrahydro-2H-quinolizin-3-yl]methanesulfonamide]
20 | 96% | Cc1ccc2n(c1=O)C(COC1CCC(C)CC1)C(NS(C)(=O)=O)CC2 [Example 1, rel-N-[(3S,4R)-7-methyl-4-({[(1s,4S)-4-methylcyclohexyl]oxy}methyl)-6-oxo-1,3,4,6-tetrahydro-2H-quinolizin-3-yl]methanesulfonamide]
